Data on 22 compounds can be found in patent publication US20160090556A1, “PRODUCTS COMPRISING MALODOR REDUCTION MATERIALS” (The Procter & Gamble Company, priority 2014, published 2016).

The structures appear in SMILES notation. Like-named read-outs stand apart in the source and are kept apart here.

Data set [1] is described as follows: Probability of Ingredient Color Instability. The data set is classed as physicochemical.
The nature of data set [2]: Liquid dish neat product liquid-air partition coefficient. The data set is classed as physicochemical.
[3] abbreviates: class code letter within Comment Code.

As for `CC1(O)CCOC2(CCCCC2)C1` (stereo not drawn) [Material 16], the “Probability of Ingredient Color Instability (Comment Code E/F)” value (“Probability” for short) in data set [1] (setting [3]) was “F (Probability of Ingredient Color Instability<71%)”. Also, the “Log of liquid dish neat product liquid-air partition coefficient (Comment Code K/L)” value (from here on “Log … (Comment Code K/L)”) in data set [2] (setting [3]) is listed as “K (Log of liquid dish neat product liquid-air partition coefficient greater than or equal to −7)”.

With `CC1CC=CCCCCCCCC(=O)OCC1` (stereo not drawn) [Material 52], the “Probability” value in data set [1] (setting [3]) is listed as “F (Probability of Ingredient Color Instability<71%)”. In data set [2] (setting [3]), the “Log … (Comment Code K/L)” value is given as “K (Log of liquid dish neat product liquid-air partition coefficient greater than or equal to −7)”.

`CC1=C2CCC3(C)OC3C2C(C)(C)CCC1` (stereo not drawn) [Material 624]: in data set [1], the “Probability” value is reported as “F (Probability of Ingredient Color Instability<71%)”. The “Log … (Comment Code K/L)” value in data set [2] was “K (Log of liquid dish neat product liquid-air partition coefficient greater than or equal to −7)”. In addition, in data set [2] (code letters K, L), the “Comment Code: Log of liquid dish neat product liquid-air partition coefficient” value is given as “K (Log of liquid dish neat product liquid-air partition coefficient greater than or equal to −7)”.

`CC1(C)C2CC=C(CCC=O)C1C2` (stereo not drawn) [Material 781]: the “Probability” value in data set [1] is listed as “F (Probability of Ingredient Color Instability<71%)”. Moreover, the “Log … (Comment Code K/L)” value in data set [2] was “K (Log of liquid dish neat product liquid-air partition coefficient greater than or equal to −7)”.

Regarding `CC(C=O)Cc1ccc(C(C)C)cc1` (stereo not drawn) [Material 478], the “Probability” value in data set [1] (setting [3]) is on record as “F (Probability of Ingredient Color Instability<71%)”. Also, the “Log … (Comment Code K/L)” value in data set [2] (setting [3]) is listed as “K (Log of liquid dish neat product liquid-air partition coefficient greater than or equal to −7)”.

With `CC1CCC2(O1)C(C)(C)CCCC2(C)O` (stereo not drawn) [Material 893], in data set [1], the “Probability” value is given as “F (Probability of Ingredient Color Instability<71%)”. The “Log … (Comment Code K/L)” value in data set [2] is listed as “K (Log of liquid dish neat product liquid-air partition coefficient greater than or equal to −7)”.

In the case of `CCCCCCCCCC=CC=O` [Material 806], the “Probability” value in data set [1] was “F (Probability of Ingredient Color Instability<71%)”. Moreover, the “Log … (Comment Code K/L)” value in data set [2] is on record as “K (Log of liquid dish neat product liquid-air partition coefficient greater than or equal to −7)”.

For the compound `CC(C)c1ccc(CCC=O)cc1` [Material 826], the “Probability” value in data set [1] is given as “F (Probability of Ingredient Color Instability<71%)”. Also, the “Log … (Comment Code K/L)” value in data set [2] is on record as “K (Log of liquid dish neat product liquid-air partition coefficient greater than or equal to −7)”.

In the case of `CC(C)=CCCC(C)(O)C1CC=C(C)CC1` (stereo not drawn) [Material 718], the “Probability” value in data set [1] was “F (Probability of Ingredient Color Instability<71%)”. In data set [2], the “Log … (Comment Code K/L)” value was “K (Log of liquid dish neat product liquid-air partition coefficient greater than or equal to −7)”.

On to `CCCCCCC(CO)C(C)=O` (stereo not drawn) [Material 106], for which the “Probability” value in data set [1] (setting [3]) is given as “F (Probability of Ingredient Color Instability<71%)”. The “Log … (Comment Code K/L)” value in data set [2] (setting [3]) is on record as “K (Log of liquid dish neat product liquid-air partition coefficient greater than or equal to −7)”.

Consider `COC(C)(C)CCCC(C)CC=O` (stereo not drawn) [Material 126], for which the “Probability” value in data set [1] (setting [3]) is listed as “F (Probability of Ingredient Color Instability<71%)”. Moreover, in data set [2] (setting [3]), the “Log … (Comment Code K/L)” value is “K (Log of liquid dish neat product liquid-air partition coefficient greater than or equal to −7)”.

In the case of `CC(C)(C=O)CC1=CCC2CC1C2(C)C` (stereo not drawn) [Material 925], in data set [1], the “Probability” value is on record as “F (Probability of Ingredient Color Instability<71%)”. The “Log … (Comment Code K/L)” value in data set [2] is recorded as “K (Log of liquid dish neat product liquid-air partition coefficient greater than or equal to −7)”.

As for `N#CC(=C1CCCCC1)c1ccccc1` [Material 945], the “Probability” value in data set [1] is recorded as “F (Probability of Ingredient Color Instability<71%)”. The “Log … (Comment Code K/L)” value in data set [2] is “K (Log of liquid dish neat product liquid-air partition coefficient greater than or equal to −7)”.

Regarding `CCCCCCCCCC(C)C=O` (stereo not drawn) [Material 103], the “Probability” value in data set [1] (setting [3]) is “F (Probability of Ingredient Color Instability<71%)”. For the same compound, in data set [2] (setting [3]), the “Log … (Comment Code K/L)” value is given as “K (Log of liquid dish neat product liquid-air partition coefficient greater than or equal to −7)”.

`CC1=CC2CC(C=O)C1CC2C(C)C` (stereo not drawn) [Material 142]: the “Probability” value in data set [1] (setting [3]) is recorded as “F (Probability of Ingredient Color Instability<71%)”. Besides, in data set [2] (setting [3]), the “Log … (Comment Code K/L)” value is “K (Log of liquid dish neat product liquid-air partition coefficient greater than or equal to −7)”.

Consider `O=C(Oc1ccccc1)c1ccccc1` [Material 965], for which the “Probability” value in data set [1] was “F (Probability of Ingredient Color Instability<71%)”. Moreover, the “Log … (Comment Code K/L)” value in data set [2] is recorded as “K (Log of liquid dish neat product liquid-air partition coefficient greater than or equal to −7)”.

For the compound `CCCCCCCCCCC=CC=O` [Material 930], the “Probability” value in data set [1] is “F (Probability of Ingredient Color Instability<71%)”. Further, the “Log … (Comment Code K/L)” value in data set [2] is listed as “K (Log of liquid dish neat product liquid-air partition coefficient greater than or equal to −7)”.

On to `CC(C)=CCCC1=CCC(C)(C=O)CC1` (stereo not drawn) [Material 988], for which the “Probability” value in data set [1] is given as “F (Probability of Ingredient Color Instability<71%)”. In addition, the “Log … (Comment Code K/L)” value in data set [2] is reported as “K (Log of liquid dish neat product liquid-air partition coefficient greater than or equal to −7)”.

In the case of `CCCCCCC/C=C\CCC=O` [Material 1045], the “Probability” value in data set [1] was “F (Probability of Ingredient Color Instability<71%)”. In data set [2], the “Log … (Comment Code K/L)” value was “K (Log of liquid dish neat product liquid-air partition coefficient greater than or equal to −7)”.

In the case of `C=C(OCC)C1C(C)(C)CC(=O)CC1(C)C` [Material 182], in data set [1] (setting [3]), the “Probability” value is on record as “F (Probability of Ingredient Color Instability<71%)”. Besides, in data set [2] (setting [3]), the “Log … (Comment Code K/L)” value was “K (Log of liquid dish neat product liquid-air partition coefficient greater than or equal to −7)”.

Consider `C/C=C/c1cc(OC)c(OC)cc1OC` [Material 924], for which, in data set [1], the “Probability” value is listed as “F (Probability of Ingredient Color Instability<71%)”. The “Log … (Comment Code K/L)” value in data set [2] is listed as “K (Log of liquid dish neat product liquid-air partition coefficient greater than or equal to −7)”.

For `CCC1=C(O)C(=O)C(C)O1` (stereo not drawn) [Material 259], in data set [1] (setting [3]), the “Probability” value was “F (Probability of Ingredient Color Instability<71%)”. For the same compound, the “Log … (Comment Code K/L)” value in data set [2] (setting [3]) is “K (Log of liquid dish neat product liquid-air partition coefficient greater than or equal to −7)”.
